In brackets after ≈: the same amount, converted by molar mass.
Each compound was assayed on Mastocarcinoma Cells MCF-7 (assay: In vitro antitumor effect on mastocarcinoma cells MCF-7 (Methylene Blue staining, proliferation inhibition)). Details: Homo sapiens, MCF7, 72 h; MCF-7 cells, 3 days culture with test compound, RPMI 1640 with 10% serum, Methylene Blue absorbance; read-out: IC50 value (50% cytostatic concentration).
Assay type: cell-based
Method: In Vitro Antitumor Effect on Mastocarcinoma Cells MCF-7
By the use of RPMI 1640 medium (Asahi Tekunogurasu Co., Ltd.) containing 10% serum, 2,000 MCF-7 cells were seeded into a 96-well plate. The cells were cultured for 24 hours under conditions of 37° C. and 5% CO2/95% air, and then a test compound was added thereto, followed by culturing for another 3 days. Cells were stained with a 0.05% Methylene Blue solution and absorbance at 660 nm was measured with a microtiter plate reader (Benchmark Plus, mfd. by BIO RAD Laboratories Inc.). The proliferation inhibition rate was calculated by the following equation and the 50% cytostatic concentration was determined from a dose-response curve. Proliferation inhibition rate=((absorbance for control group−absorbance for drug-treated group)/absorbance for control group))×100

Row | IC50 | Compound
1 | 1.18 mg/L (≈ 2.79 µM) | COC(=O)CCC(=O)OC1CC(C)Cc2nnc(-c3cccc(C(F)(F)F)c3)cc21 (centres unmarked) [Compound No. 26, 5-(3-methoxycarbonylpropanoyl)oxy-7-methyl-3-(3-trifluoromethylphenyl)-5,6,7,8-tetrahydro-cinnoline]
2 | 0.135 mg/L (≈ 0.342 µM) | CCOCC(=O)OC1CC(C)Cc2nnc(-c3cccc(C(F)(F)F)c3)cc21 (centres unmarked) [Compound No. 13, 5-ethoxyacetyloxy-7-methyl-3-(3-trifluoromethylphenyl)-5,6,7,8-tetrahydrocinnoline]
3 | 0.166 mg/L (≈ 0.323 µM) | CC1Cc2nnc(-c3cccc(C(F)(F)F)c3)cc2C(OC(=O)COCC(=O)NCc2cccnc2)C1 (centres unmarked) [Compound No. 16, 5-[(pyridin-3-ylmethyl)aminocarbonylmethoxyacetyl]oxy-7-methyl-3-(3-trifluoromethyl-phenyl)-5,6,7,8-tetrahydrocinnoline]
4 | 0.129 mg/L (≈ 0.306 µM) | CC1Cc2nnc(-c3cccc(C(F)(F)F)c3)cc2C(OC(=O)CCCN(C)C)C1 (centres unmarked) [Compound No. 21, 5-(4-dimethylaminobutanoyl)oxy-7-methyl-3-(3-trifluoromethylphenyl)-5,6,7,8-tetrahydro-cinnoline]
5 | 0.139 mg/L (≈ 0.27 µM) | CC1Cc2nnc(-c3cccc(C(F)(F)F)c3)cc2C(OC(=O)COCC(=O)NCc2ccncc2)C1 (centres unmarked) [Compound No. 17, 5-[(pyridin-4-ylmethyl)aminocarbonylmethoxyacetyl]oxy-7-methyl-3-(3-trifluoromethyl-phenyl)-5,6,7,8-tetrahydrocinnoline]
6 | 0.171 mg/L (≈ 0.319 µM) | CC1Cc2nnc(-c3cccc(C(F)(F)F)c3)cc2C(OC(=O)COCC(=O)NCCN2CCOCC2)C1 (centres unmarked) [Compound No. 15, 5-[(2-(morpholin-4-yl)ethyl)aminocarbonylmethoxyacetyl]oxy-7-methyl-3-(3-trifluoromethylphenyl)-5,6,7,8-tetrahydrocinnoline]
7 | 0.148 mg/L (≈ 0.349 µM) | CC1Cc2nnc(-c3cccc(C(F)(F)F)c3)cc2C(OC(=O)COCC(=O)O)C1 (centres unmarked) [Compound No. 14, 5-(carboxymethoxyacetyl)oxy-7-methyl-3-(3-trifluoromethylphenyl)-5,6,7,8-tetrahydrocinnoline]
8 | 0.128 mg/L (≈ 0.246 µM) | CC1Cc2nnc(-c3cccc(C(F)(F)F)c3)cc2C(OC(=O)CCC(=O)NCCN2CCOCC2)C1 (centres unmarked) [Compound No. 23, 5-[3-[2-(morpholin-4-yl)ethyl]amino-carbonylpropanoyl]oxy-7-methyl-3-(3-trifluoromethylphenyl)-5,6,7,8-tetrahydrocinnoline]
9 | 0.098 mg/L (≈ 0.197 µM) | CC1Cc2nnc(-c3cccc(C(F)(F)F)c3)cc2C(OC(=O)CCC(=O)NCc2cccnc2)C1 (centres unmarked) [Compound No. 24, 5-[3-(pyridin-3-ylmethyl)aminocarbonylpropanoyl]oxy-7-methyl-3-(3-trifluoromethylphenyl)-5,6,7,8-tetrahydrocinnoline]
10 | 0.144 mg/L (≈ 0.289 µM) | CC1Cc2nnc(-c3cccc(C(F)(F)F)c3)cc2C(OC(=O)CCC(=O)NCc2ccncc2)C1 (centres unmarked) [Compound No. 25, 5-[3-(pyridin-4-ylmethyl)aminocarbonylpropanoyl]oxy-7-methyl-3-(3-trifluoromethylphenyl)-5,6,7,8-tetrahydrocinnoline]
11 | 0.981 mg/L (≈ 2.4 µM) | CC1Cc2nnc(-c3cccc(C(F)(F)F)c3)cc2C(OC(=O)CCC(=O)O)C1 (centres unmarked) [Compound No. 18, 5-(3-carboxypropanoyl)oxy-7-methyl-3-(3-trifluoromethylphenyl)-5,6,7,8-tetrahydrocinnoline]
12 | 0.736 mg/L (≈ 1.69 µM) | CCOC(=O)CCC(=O)OC1CC(C)Cc2nnc(-c3cccc(C(F)(F)F)c3)cc21 (centres unmarked) [Compound No. 27, 5-(3-ethoxycarbonylpropanoyl)oxy-7-methyl-3-(3-trifluoromethylphenyl)-5,6,7,8-tetrahydro-cinnoline]
13 | 4.34 mg/L | CC1Cc2nnc(-c3cccc(C(F)(F)F)c3)cc2C(OC(=O)N2CCOCC2)C1.Cl (centres unmarked) [Compound No. 43, 7-methyl-5-(morpholin-4-yl-carbonyl)oxy-3-(3-trifluoromethylphenyl)-5,6,7,8-tetrahydrocinnoline hydrochloride]
14 | 0.908 mg/L (≈ 2.15 µM) | CC1Cc2nnc(-c3cccc(C(F)(F)F)c3)cc2C(OC(=O)CCCC(=O)O)C1 (centres unmarked) [Compound No. 19, 5-(4-carboxybutanoyl)oxy-7-methyl-3-(3-trifluoromethylphenyl)-5,6,7,8-tetrahydrocinnoline]
15 | 0.649 mg/L (≈ 1.58 µM) | COCCOC(=O)OC1CC(C)Cc2nnc(-c3cccc(C(F)(F)F)c3)cc21 (centres unmarked) [Compound No. 38, 5-(2-methoxyethoxycarbonyl)oxy-7-methyl-3-(3-trifluoromethylphenyl)-5,6,7,8-tetrahydro-cinnoline]

Same assay, conditions: MCF-7 cells, 3 days culture with test compound, RPMI 1640 with 10% serum, Methylene Blue absorbance

Row | IC50 value (50% cytostatic concentration) | Compound
16 | 0.152 mg/L (≈ 0.327 µM) | CC1Cc2nnc(-c3cccc(C(F)(F)F)c3)cc2C(OC(=O)OCCN2CCOCC2)C1 (centres unmarked) [Compound No. 39, 5-(2-(morpholino-4-yl)ethoxycarbonyl)oxy-7-methyl-3-(3-trifluoromethylphenyl)-5,6,7,8-tetrahydrocinnoline]
17 | 1.339 mg/L (≈ 3.16 µM) | CC1Cc2nnc(-c3cccc(C(F)(F)F)c3)cc2C(OC(=O)CC(O)C(=O)O)C1 (centres unmarked) [Compound No. 20, 5-[(3-carboxy-3-hydroxy)propanoyl]oxy-7-methyl-3-(3-trifluoromethylphenyl)-5,6,7,8-tetrahydrocinnoline]

From patent publication US20080039468A1, “Novel 3-Phenyltetrahydrocinnolin-5-Ol Derivative and Medicinal Use Thereof” (priority 2004, published 2008)
